System: human platelets
Assay: suppressive activity on ADP aggregation of human platelets
Type: cell-based
Settings: platelet rich plasma, ADP 1-5 μM, compound added 2 minutes before ADP, read-out: Suppression of platelet aggregation (IC50)
Procedure: Determination of suppressive activity on ADP aggregation of human platelets
Platelet rich plasma was prepared from the blood taken from healthy humans by centrifugation in the presence of 0.38% sodium citrate, and used for the determination.
Two minutes after the test compounds shown in Table 1 were added to the above-mentioned platelet rich plasma, ADP (adenosine-5'-diphosphate) (1-5 μM) having a concentration at which primary aggregation alone is observed was added, and the suppression of ADP aggregation by the compounds was evaluated. The percent suppression was determined by varying the concentration of the compounds and the concentration of the compound at which the aggregation was suppressed by 50% (IC50) was calculated, which was taken as the activity of the compound.

IC50 [nM] | Structure (SMILES)
20 | N=C(N)c1cnc2oc(C(=O)N[C@H]3CC[C@H](OCC(=O)O)CC3)cc2c1 [Compound 255, trans-[4-(5-Amidinofuro[2,3-b]pyridine-2-carbonylamino)-cyclohexyloxy]acetic acid]
10 | N=C(N)c1cnc2oc(C(=O)N[C@H]3CC[C@H](CCC(=O)O)CC3)cc2c1 [Compound 261, trans-3-[4-(5-Amidinofuro[2,3-b]pyridine-2-carbonylamino)cyclohexyl]propionic acid]

Reference: patent US5635527A, “Carboxylic acid compound having condensed ring, salt thereof and pharmaceutical use thereof” (The Green Cross Corporation, priority 1994, dated 1997)
